Laboratory results as given in ChEMBL document CHEMBL4024754, “Development of Potent, Protease-Resistant Agonists of the Parathyroid Hormone Receptor with Broad β Residue Distribution” (J Med Chem, 2017).
Numbered stars: 1 amine (or outer) side, 2 acyl side, 3 side chain; on linkers, the order of the positions; unused ones are H or OH. Square brackets hold non-standard residues; d marks the D form. Peptide text beside a SMILES is read from it. * marks the point of attachment. NH(1S,2S-2-CONH2-cPent) = NC(=O)[C@H]1CCC[C@@H]1N*; β3hW = N[C@H](CC(=O)O)Cc1c[nH]c2ccccc12; ACPC(1S,2S) = N[C@H]1CCC[C@@H]1C(=O)*; X1 = O=C([C@H]1CCC[C@@H]1N[*:1])[*:2]; X2 = O=C([C@H]1CNC[C@@H]1N[*:1])[*:2]; hArg = N=C(N)NCCCC[C@H](N)C(=O)O; β3hE = N[C@@H](CCC(=O)O)CC(=O)O; β3hF = N[C@H](CC(=O)O)Cc1ccccc1; β3hK = NCCCC[C@H](N)CC(=O)O; β3hM = CSCC[C@H](N)CC(=O)O; β3hD = NC(CC(=O)O)CC(=O)O; Aib = CC(C)(N)C(=O)O

Experiments:
[1] = target: T1, Parathyroid hormone/parathyroid hormone-related peptide receptor (Homo sapiens) (UniProt Q03431); test: Agonist activity at human PTH1 receptor expressed in human GP2.3 cells assessed as induction of cAMP after 12 to 20 mins by luciferase reporter gene assay relative to PTH(1 to 34 residues)-NH2; assay type: functional, cell-based
T1 sequence (whole entry): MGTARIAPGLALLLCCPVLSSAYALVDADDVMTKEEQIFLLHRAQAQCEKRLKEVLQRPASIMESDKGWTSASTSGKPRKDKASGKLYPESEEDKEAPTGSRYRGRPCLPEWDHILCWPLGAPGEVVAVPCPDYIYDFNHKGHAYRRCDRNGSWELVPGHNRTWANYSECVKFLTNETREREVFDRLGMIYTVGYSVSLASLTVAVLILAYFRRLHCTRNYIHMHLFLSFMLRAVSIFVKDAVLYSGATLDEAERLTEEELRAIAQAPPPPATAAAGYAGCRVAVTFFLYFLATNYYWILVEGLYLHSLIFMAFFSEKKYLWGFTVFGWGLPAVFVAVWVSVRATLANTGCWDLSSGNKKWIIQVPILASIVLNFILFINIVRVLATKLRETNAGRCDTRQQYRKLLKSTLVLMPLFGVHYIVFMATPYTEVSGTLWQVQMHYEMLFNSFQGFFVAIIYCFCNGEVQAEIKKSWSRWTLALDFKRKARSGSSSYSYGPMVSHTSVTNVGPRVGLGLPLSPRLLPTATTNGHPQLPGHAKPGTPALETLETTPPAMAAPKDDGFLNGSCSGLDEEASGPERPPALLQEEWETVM

[2] = target: T2, Parathyroid hormone/parathyroid hormone-related peptide receptor (Homo sapiens, UniProt Q03431); test: Agonist activity at human PTH1 receptor expressed in human GP2.3 cells assessed as induction of cAMP after 12 to 20 mins by luciferase reporter gene assay; assay type: functional, cell-based; settings: read-out: EC50
T2 sequence (Q03431 whole entry): T1 sequence (whole entry)

| fold change (FC) [1] | Structure (SMILES) | EC50 [2] [nM] |
| --- | --- | --- |
| 22 | CC[C@H](C)[C@H](NC(=O)[C@H](CCC(=O)O)NC(=O)C(C)(C)NC(=O)[C@@H](NC(=O)[C@H]1CCC[C@@H]1N)C(C)C)C(=O)N[C@@H](CCC(N)=O)C(=O)N[C@H]1CCC[C@@H]1C(=O)N[C@@H](CCSC)C(=O)N[C@@H](Cc1cnc[nH]1)C(=O)N[C@@H](CCC(N)=O)C(=O)N[C@@H](CCCCNC(=N)N)C(=O)N[C@@H](C)C(=O)N[C@@H](CCCCN)C(=O)N[C@H]1CCC[C@@H]1C(=O)N[C@@H](CC(C)C)C(=O)N[C@@H](CC(N)=O)C(=O)N[C@@H](CO)C(=O)N[C@H]1CCC[C@@H]1C(=O)N[C@@H](CCCNC(=N)N)C(=O)N[C@@H](CCCNC(=N)N)C(=O)N[C@H](C(=O)N[C@H]1CNC[C@@H]1C(=O)N[C@@H](Cc1c[nH]c2ccccc12)C(=O)N[C@@H](CC(C)C)C(=O)N[C@@H](CCCNC(=N)N)C(=O)N[C@H]1CNC[C@@H]1C(=O)N[C@@H](CCCCN)C(=O)N[C@@H](CC(C)C)C(=O)N[C@@H](CCC(N)=O)C(=O)N[C@H]1CCC[C@@H]1C(=O)N[C@H](C(=O)N[C@@H](Cc1cnc[nH]1)C(=O)N[C@@H](CC(N)=O)C(=O)N[C@H]1CCC[C@@H]1C(N)=O)C(C)C)C(C)C ({ACPC(1S,2S)}-V[Aib]EIQ[X1]MHQ[hArg]AK[X1]LNS[X1]RRV[X2]WLR[X2]KLQ[X1]VHN-{NH(1S,2S-2-CONH2-cPent)}) | 1.8 |
| 60.4 | CC[C@H](C)[C@H](NC(=O)C[C@H](CO)NC(=O)[C@H](CCCCN)NC(=O)CNC(=O)[C@H](CCCCN)NC(=O)[C@H](CC(=O)O)NC(=O)[C@H](Cc1cnc[nH]1)NC(=O)[C@H](CC(C)C)NC(=O)[C@H](CC(C)C)NC(=O)[C@H](CCC(N)=O)NC(=O)[C@H](Cc1cnc[nH]1)NC(=O)[C@H](CCC(=O)O)NC(=O)[C@H](CO)NC(=O)[C@@H](NC(=O)[C@H](C)N)C(C)C)C(=O)N[C@@H](CCC(N)=O)C(=O)N[C@@H](CC(=O)O)C(=O)N[C@H](CC(=O)N[C@@H](CCCNC(=N)N)C(=O)N[C@@H](CCCNC(=N)N)C(=O)N[C@@H](CCCNC(=N)N)C(=O)N[C@@H](CCC(=O)O)CC(=O)N[C@@H](CC(C)C)C(=O)N[C@@H](CC(C)C)C(=O)N[C@@H](CCC(=O)O)C(=O)N[C@@H](CCCCN)CC(=O)N[C@@H](CC(C)C)C(=O)N[C@@H](CC(C)C)C(=O)NC(C)(C)C(=O)N[C@@H](CCCCN)CC(=O)N[C@@H](CC(C)C)C(=O)N[C@@H](Cc1cnc[nH]1)C(=O)N[C@H](C(=O)N[C@@H](C)CC(N)=O)[C@@H](C)O)CC(C)C |  |
| 2.6 | CC[C@H](C)[C@H](NC(=O)[C@H]1CCC[C@@H]1NC(=O)[C@H](CCCCN)NC(=O)CNC(=O)[C@H](CCCCN)NC(=O)[C@H](CC(=O)O)NC(=O)[C@H](Cc1cnc[nH]1)NC(=O)[C@H](CC(C)C)NC(=O)[C@H](CC(C)C)NC(=O)[C@H](CCC(N)=O)NC(=O)[C@H](Cc1cnc[nH]1)NC(=O)[C@H](CCC(=O)O)NC(=O)[C@H](CO)NC(=O)[C@@H](NC(=O)[C@H](C)N)C(C)C)C(=O)N[C@@H](CCC(N)=O)C(=O)N[C@@H](CC(=O)O)C(=O)N[C@H]1CCC[C@@H]1C(=O)N[C@@H](CCCNC(=N)N)C(=O)N[C@@H](CCCNC(=N)N)C(=O)N[C@@H](CCCNC(=N)N)C(=O)N[C@H]1CNC[C@@H]1C(=O)N[C@@H](CC(C)C)C(=O)N[C@@H](CC(C)C)C(=O)N[C@@H](CCC(=O)O)C(=O)N[C@H]1CNC[C@@H]1C(=O)N[C@@H](CC(C)C)C(=O)N[C@@H](CC(C)C)C(=O)NC(C)(C)C(=O)N[C@H]1CCC[C@@H]1C(=O)N[C@@H](CC(C)C)C(=O)N[C@@H](Cc1cnc[nH]1)C(=O)N[C@H](C(=O)N[C@H]1CCC[C@@H]1C(N)=O)[C@@H](C)O (H-AVSEHQLLHDKGK[X1]IQD[X1]RRR[X2]LLE[X2]LL[Aib][X1]LHT-{NH(1S,2S-2-CONH2-cPent)}) |  |
| 9.4 | CC[C@H](C)[C@H](NC(=O)[C@H]1CCC[C@@H]1NC(=O)[C@H](C)NC(=O)[C@H](NC(=O)[C@H](CC(C)C)NC(=O)[C@H]1CNC[C@@H]1NC(=O)[C@H](Cc1cnc[nH]1)NC(=O)[C@H](CC(C)C)NC(=O)[C@H](Cc1ccccc1)NC(=O)[C@H]1CNC[C@@H]1NC(=O)[C@H](CCCNC(=N)N)NC(=O)[C@H](CCCNC(=N)N)NC(=O)[C@H](CCCNC(=N)N)NC(=O)[C@H]1CCC[C@@H]1NC(=O)[C@H](CC(=O)O)NC(=O)[C@H](CCC(N)=O)NC(=O)[C@@H](NC(=O)[C@H]1CCC[C@@H]1NC(=O)[C@H](CCCCN)NC(=O)CNC(=O)[C@H](CCCCN)NC(=O)[C@H](CC(=O)O)NC(=O)[C@H](Cc1cnc[nH]1)NC(=O)[C@H](CC(C)C)NC(=O)[C@H](CC(C)C)NC(=O)[C@H](CCC(N)=O)NC(=O)[C@H](Cc1cnc[nH]1)NC(=O)[C@H](CCC(=O)O)NC(=O)[C@H](CO)NC(=O)[C@@H](NC(=O)[C@H](C)N)C(C)C)[C@@H](C)CC)[C@@H](C)CC)C(=O)N[C@@H](Cc1cnc[nH]1)C(=O)N[C@H](C(=O)N[C@H]1CCC[C@@H]1C(N)=O)[C@@H](C)O |  |
| 234 | CSCC[C@H](NC(=O)[C@H]1CCC[C@@H]1NC(=O)[C@H](CCC(N)=O)NC(=O)[C@H]1CCC[C@@H]1NC(=O)[C@H](CCC(=O)O)NC(=O)[C@H](CO)NC(=O)[C@@H](NC(=O)[C@H]1CCC[C@@H]1N)C(C)C)C(=O)N[C@@H](Cc1cnc[nH]1)C(=O)N[C@@H](CC(N)=O)C(=O)N[C@@H](CC(C)C)C(=O)NCC(=O)N[C@@H](CCCCN)C(=O)N[C@H]1CCC[C@@H]1C(=O)N[C@@H](CC(C)C)C(=O)N[C@@H](CC(N)=O)C(=O)N[C@@H](CO)C(=O)N[C@H]1CCC[C@@H]1C(=O)N[C@@H](CCC(=O)O)C(=O)N[C@@H](CCCNC(=N)N)C(=O)N[C@H](C(=O)N[C@H]1CNC[C@@H]1C(=O)N[C@@H](Cc1c[nH]c2ccccc12)C(=O)N[C@@H](CC(C)C)C(=O)N[C@@H](CCCNC(=N)N)C(=O)N[C@H]1CNC[C@@H]1C(=O)N[C@@H](CCCCN)C(=O)N[C@@H](CC(C)C)C(=O)N[C@@H](CCC(N)=O)C(=O)N[C@H]1CCC[C@@H]1C(=O)N[C@H](C(=O)N[C@@H](Cc1cnc[nH]1)C(=O)N[C@@H](CC(N)=O)C(=O)N[C@H]1CCC[C@@H]1C(N)=O)C(C)C)C(C)C ({ACPC(1S,2S)}-VSE[X1]Q[X1]MHNLGK[X1]LNS[X1]ERV[X2]WLR[X2]KLQ[X1]VHN-{NH(1S,2S-2-CONH2-cPent)}) |  |

| Structure (SMILES) | fold change (FC) [1] | EC50 [2] [nM] |
| --- | --- | --- |
| CSCC[C@@H](CC(=O)N[C@@H](CCC(=O)O)C(=O)N[C@@H](CCCNC(=N)N)C(=O)N[C@H](C(=O)N[C@@H](CCC(=O)O)CC(=O)N[C@@H](Cc1c[nH]c2ccccc12)C(=O)N[C@@H](CC(C)C)C(=O)N[C@@H](CCCNC(=N)N)C(=O)N[C@@H](CCCCN)CC(=O)N[C@@H](CCCCN)C(=O)N[C@@H](CC(C)C)C(=O)N[C@@H](CCC(N)=O)C(=O)N[C@@H](CC(=O)O)CC(=O)N[C@H](C(=O)N[C@@H](Cc1cnc[nH]1)C(=O)N[C@@H](CC(N)=O)C(=O)N[C@H](CC(N)=O)Cc1ccccc1)C(C)C)C(C)C)NC(=O)[C@H](CO)NC(=O)[C@H](CC(N)=O)NC(=O)[C@H](CC(C)C)NC(=O)C[C@H](Cc1c[nH]c2ccccc12)NC(=O)[C@H](CCCCN)NC(=O)CNC(=O)[C@H](CC(C)C)NC(=O)[C@H](CC(N)=O)NC(=O)[C@H](Cc1cnc[nH]1)NC(=O)[C@H](CCSC)NC(=O)[C@H]1CCC[C@@H]1NC(=O)[C@H](CCC(N)=O)NC(=O)[C@H]1CCC[C@@H]1NC(=O)[C@H](CCC(=O)O)NC(=O)[C@H](CO)NC(=O)[C@@H](NC(=O)[C@H]1CCC[C@@H]1N)C(C)C ({ACPC(1S,2S)}-VSE[X1]Q[X1]MHNLGK[β3hW]LNS[β3hM]ERV[β3hE]WLR[β3hK]KLQ[β3hD]VHN[β3hF]-NH2) | 2050 | 167 |
